Patent US20240091203A1, “METHODS FOR TREATING NON-OBSTRUCTIVE HYPERTROPHIC CARDIOMYOPATHY” (Cytokinetics, Incorporated, priority 2022, published 2024)
Entries after “also recorded” stand apart in the source; their conditions may differ.

How the values were obtained:
[1] = system: patients with symptomatic non-obstructive HCM (nHCM) or HCM with MVO; experiment: Phase 2 trial (Example 2): safety and tolerability; details: for Patients with fatal TEAEs: not related
Excerpt: The study excluded patients receiving disopyramide. […] Overall, the treatment duration was 10 weeks with a 4-week follow-up period after the last dose.
Patients were eligible to be included in the study only if all the following criteria apply: 1. Able to comprehend and willing to sign an informed consent form (ICF) and willing to comply with all study procedures and restrictions for the duration; 2. Males and females between 18 and 85 years of age at screening; 3. Body weight is ≥45 kg at screening; 4. Diagnosed with HCM per the following criteria: (a) has LV hypertrophy and non-dilated LV chamber in the absence of other cardiac disease; and (b) has minimal wall thickness ≥15 mm (minimal wall thickness ≥13 mm is acceptable with a positive family history of HCM or with a known disease-causing gene mutation); 5. Adequate acoustic windows for echocardiography; 7. Left ventricular ejection fraction (LVEF) ≥60% at screening; 8. New York Heart Association (NYHA) Class II or III at screening; 9. Patients on beta-blockers, verapamil, diltiazem, or ranolazine should have been on stable doses for ≥4 weeks and anticipate remaining on the same medication regimen during the study; 10. […] Able to complete all screening procedures.
Patients were excluded from the study if any of the following criteria applied: 1. Aortic stenosis or fixed subaortic obstruction; 2. Known infiltrative or storage disorder causing cardiac hypertrophy that mimics HCM (e.g., Noonan syndrome, Fabry disease, amyloidosis); 3. […] Documented history of current obstructive coronary artery disease (>70% stenosis in one or more epicardial coronary arteries) or documented history of myocardial infarction; 6. […] Has any ECG abnormality considered by the investigator to pose a risk to patient safety (e.g., second degree atrioventricular block type II); 9. Paroxysmal atrial fibrillation or flutter documented during the screening period; 10. […] Currently participating in another investigational device or drug study or received an investigational device or drug <1 month (or 5 half-lives for drugs, whichever is longer) prior to screening; 20.
Each patient received Dose 1 once daily for 2 weeks. […] Otherwise, the patient remained on Dose 1. If LVEF was <50% at Week 2, treatment was discontinued.
Otherwise, the patient remained on the same dose. If LVEF was <50% at Week 4, the patient returned to a prior dose level or treatment was discontinued if the patient was on Dose 1.
If LVEF was <50% at Week 6, the patient was down-titrated to a prior dose level or discontinued if the patient was on Dose 1.
Primary safety endpoints were: (i) patient incidence of reported AEs from first dose up to safety follow-up; (ii) patient incidence of reported SAEs from first dose up to safety follow-up; (iii) patient incidence of LVEF <50% from first dose up to safety follow-up.
Safety follow-up was defined as 4 weeks following the last dose.

[2] = Phase 1 plasma pharmacokinetics, multiple-ascending dose (MAD) cohorts; type: in vivo, human; details: for AUC24 / Cmax / Tmax: Day 1; for AUC24 / Cmax / AUCtau / Cmax, ss: geometric mean; for AUC24 / Cmax / Tmax / AUCtau / Cmax, ss / CLss/F / t1/2 / Tmax, ss: n = 6; for Tmax / Tmax, ss: median; for CLss/F / t1/2: mean ± SD
Experimental: Multiple-ascending dose (MAD) cohorts. The MAD cohorts also used a randomized, double-blind, placebo-controlled, sequential design.
Pharmacokinetic analyses. For all study groups, blood samples for PK assessment were obtained pre-dose, up to 12 times daily on day 1, and then at regular intervals throughout the study. Blood samples were collected according to the following schedule: SAD Cohorts: Day 1: pre-dose and 0.25, 0.5, 1, 1.5, 2, 2.5, 3, 4, 6, 8, 12, 16, 24, 36, 48, 72, 96, and 216 h post dose. MAD Cohorts (14-day Dosing): Day 1: pre-dose and 0.25, 0.5, 1, 1.5, 2, 2.5, 3, 4, 6, 8, and 12 h post dose; Days 2, 4, 5, 6, and 9: pre-dose (corresponding to trough samples following dosing on days 1, 3, 4, 5, and 8) and 1.5 h post dose; Days 3, 7, 8, 10, 11, 12, and 13: pre-dose (corresponding to trough samples following dosing on days 2, 6, 7, 9, 10, 11, and 12); Day 14: pre-dose and 0.25, 0.5, 1.5, 2, 2.5, 3, 4, 6, 8, 12, 16, 24, 36, 48, 72, and 168 h post dose. MAD Cohort (17-Day Dosing): Day 1: pre-dose and 0.25, 0.5, 1, 1.5, 2, 2.5, 3, 4, 6, 8, and 12 h post dose; Days 2, 4, 5, 6, and 9: pre-dose (corresponding to trough samples following dosing on days 1, 3, 4, 5, and 8) and 1.5 h post dose; Days 3, 7, 8, 10, 11, 12, 13, 14, 15, and 16: pre-dose (corresponding to trough samples following dosing on days 2, 6, 7, 9, 10, 11, and 12); Day 17: pre-dose and 0.25, 0.5, 1.5, 2, 2.5, 3, 5, 7, 9, 12, 24, 36, 48, 72, and 168 h post dose. CYPD6-PM Cohort: Day 1: pre-dose and 0.25, 0.5, 1, 1.5, 2, 2.5, 3, 4, 6, 8, 12, 16, 24, 36, 48, 72, 96, 216, 312, and 552 h post dose. Food-Effect Cohort: Day 1: pre-dose and 0.25, 0.5, 1, 1.5, 2, 2.5, 3, 4, 6, 8, 12, 16, 24, 36, 48, 72, 96, 144, and 216 h post dose. Standard non-compartmental methods were used to calculate PK parameters using Phoenix® WinNonlin® Version 7.0; actual sample collection times were utilized.
For the MAD cohort, the parameters were AUC24 and Cmax on day 1, plus AUC to the end of the dosing period (AUCtau) and Cmax on day 14 or 17. The statistical linear relationship between the In-transformed PK parameters and the In-transformed dose was verified by including the quadratic (ln Dose)^2 and cubic (ln Dose)^3 effects. […] The dose-proportionality analysis was performed using SAS® PROC MIXED.
An analysis of variance (ANOVA) model was conducted separately for each dose level; day was included as the fixed effect. Helmert contrasts were developed such that each time-point was compared with the mean of the subsequent time-points.

[3] = number of patients, N = 41, interim

## CCc1nc(-c2ccc3c(c2)CC[C@H]3NC(=O)c2cnn(C)c2)no1 [aficamten, (R)—N-(5-(5-ethyl-1,2,4-oxadiazol-3-yl)-2,3-dihydro-1H-inden-1-yl)-1-methyl-1H-pyrazole-4-carboxamide]
[1]; 4 of 41 patients including one death, second interim
  patients who experienced SAEs: 9.8%
[1]; 10 weeks, nHCM patients
  overall tolerability: well-tolerated overall
[1]; Week 10 (EOT), 3 of 41 patients
  patients with LVEF <50%: 7.3%
[1]; by Week 12 (2 weeks' washout)
  recovery of LVEF in patients with LVEF <50%: All 3 patients returned to baseline LVEF; also recorded: All LVEF returned to normal
[1]; interim
  AEs of heart failure: No AEs of heart failure
  drug discontinuations due to AE: no drug discontinuations
  relatedness of SAEs (bronchitis, new onset atrial fibrillation, cardiac arrest) per Investigator: None of these were deemed related to aficamten
[1]; [3]
  Patients reporting at least one TEAE: 27
  Patients with AEs related to study drug (per Investigator): 4
  Patients with Moderate TEAEs: 14
  Patients with Severe TEAEs: 3
  Patients with fatal TEAEs: 1
[1]; percent of N = 41, interim
  Patients with AEs related to study drug (per Investigator): (9.8) %
  Patients with Moderate TEAEs: (34) %
  Patients with Severe TEAEs: (7.3) %
  Patients with TESAEs: (7.3) %
  Patients with fatal TEAEs: (2.4) not related %
[1]; second interim
  attribution of SAEs: None of the SAEs were attributed to aficamten
  events with LVEF <40%: no events with LVEF <40%; also recorded: No LVEF <40% occurred
  treatment interruptions or down-titration events related to LVEF <50%: no treatment interruptions or down-titration events
[1]; week 9, interim
  patients with dose reduction to 10 mg for AE fatigue: One patient
[1]; weeks 0-6, interim
  LVEF <50% during the titration period: no LVEF were less than 50%
[2]; MAD 5 mg qd × 14 Days
  AUC24: 278 ng·h/mL
  Cmax: 28.0 ng/mL
  Tmax: 1.3 h
[2]; MAD 5 mg qd, Day 14
  AUCtau: 1320 ng·h/mL
  Cmax, ss: 69.0 ng/mL
  CLss/F: 3.9 ± 0.9 L/h
  t1/2: 86.4 ± 11.9 h
  Tmax, ss: 2.8 h
[2]; MAD 7.5 mg qd × 17 Days
  Tmax: 0.8 h
[2]; MAD 7.5 mg qd, Day 17
  AUCtau: 2518 ng·h/mL
  Cmax, ss: 147.6 ng/mL
  CLss/F: 3.1 ± 0.7 L/h
  t1/2: 76.9 ± 14.5 h
[2]; MAD 10 mg qd × 14 Days
  AUC24: 547 ng·h/mL
  Cmax: 54.4 ng/mL
  Tmax: 1.0 h
[2]; MAD 10 mg qd, Day 14
  AUCtau: 2632 ng·h/mL
  Cmax, ss: 141.2 ng/mL
  CLss/F: 3.9 ± 0.8 L/h
  t1/2: 79.8 ± 14.1 h
  Tmax, ss: 2.5 h
[2]; MAD 5-mg and 7.5-mg doses
  steady state achieved by end of day: 12 days
[2]; MAD 10-mg dose
  steady state achieved by end of day: 10 days
[2]; once-daily dosing
  time to steady state: ≤ 2 weeks
